In patent US12263139B2, “Use of cannabidiol in the treatment of tuberous sclerosis complex” (Jazz Pharmaceuticals Research UK Limited, priority 2017, dated 2025):

Tests used:
AML 621-101 cells [1] = assay: Transwell cell migration assay in AML 621-101 cells; format: cell-based
Protocol: (§1) (i) Angiomyolipomas (AML) cells derived from a Tuberous Sclerosis Complex patient (621-101 cell-line), with a known loss of function of TSC2. […] Zeocin™ was purchased from LifeTechnologies (cat no: R25001) and was used to originally generate the stable cell line (by Prof. Lisa Henske) over two weeks of Zeocin™ selection and then for continued maintenance of the cells in tissue culture (at 100 μg/ml).
(§2) Tsc2−/− and Tsc2+/+ cell lines were cultured and maintained in DMEM supplemented with 10% (v/v) FBS and 1% (v/v) penicillin-streptomycin in a humidified incubator (5% CO2 at 37° C.). The AML −/− cell lines were cultured and maintained in DMEM supplemented with 15% (v/v) FBS and 1% (v/v) penicillin-streptomycin in a humidified incubator (5% CO2 at 37° C.). For hypoxia, cells were put into a Binder CB150 hypoxic chamber set at 1% 02 for the indicated time points
The stock concentration of CBD was made to 20 mM in dimethyl sulfoxide (DMSO). […]
(§3) Transwell permeable supports with 6.5 mm diameter inserts, 8.0 μm pore size, and a polycarbonate membrane were used to perform migration assays. […] Cells were counted using a haemocytometer. […] The percentage of adherent cells was then determined by fixing the cells with methanol and acetone (1:1) for 20 minutes at 20° C. […] Crystal Violet stained cells were eluted with 1% (w/v) SDS and the absorbance was read at 550 nm on a Genova MK3 Lifescience.

Miapaca = assay: Drug combination assay (MTT, CalcuSyn) of Rad001 and CBD in Miapaca; format: cell-based, Homo sapiens
Protocol: For the study of the synergism between Rad001 and CBD on pancreatic cell lines Miapaca was tested, the cells were seeded in 96-multiwell plates at the density of 3.8 10^3 cells/well. After 24 hr incubation at 37° C., the cells were treated with different concentrations of Rad001 and CBD. Different molar ratios between two drugs in different sequences of administration were tested, (Rad001 for 48 h and CBD for 72 h or Rad001 for 72 h and CBD for 48 h and in co-administration for 72 h.
The proliferative response was estimated by colorimetric 3-(4,5 di-methylthiazol-2-yl)-2,5-diphenyltetrazolium bromide (MIT) test. MTT conversion to formazan by metabolically viable cells was monitored by spectrophotometer at an optical density of 570 nm. Each data point represents the average of three separate experiments with each experiment containing four wells. Drug combination studies were based on concentration-effect curves generated as a plot of the fraction of unaffected (surviving) cells versus drug concentration after treatment.
To explore the relative contribution of each agent to the synergism equi-active doses of […] were tested (IC50). Assessment of synergy was performed quantitating drug interaction by Calcusyn computer program (Biosoft, Ferguson, MO). Combination index (CI) values of <1, 1, and >1 indicate synergy, additivity and antagonism, respectively.
Dose reduction index (DRI) representing the measure of how much the dose of each drug in a combination may be reduced at a given effect level compared with the doses of each drug alone.
The effects of the pharmacological combination between CBD and RAD001 on the proliferation MIAPACA cell lines, using MTT assay were studied. The data obtained were processed with dedicated program, CalcuSyn (Chou and Talalay, Biosoft, Oregon, USA), which measures synergism.
The specific contribution of CBD and Rad001 on the cytotoxic effect of the combination of drugs was analyzed by calculating the potentiation factor (PF) defined as the ratio of the IC50 of either CBD or Rad001 alone to the IC50 of CBD and Rad001 in combination. A higher PF indicates a greater cytotoxicity.

AML 621-101 cells [2] = assay: Matrigel cell invasion assay in AML 621-101 cells; format: cell-based; conditions: CBD at both 5 μM and 10 μM
Protocol: as §1
Tsc2−/− and Tsc2+/+ cell lines were cultured and maintained in DMEM supplemented with 10% (v/v) FBS and 1% (v/v) penicillin-streptomycin in a humidified incubator (5% CO2 at 37° C.). […]
as §3
For invasion assays, a similar protocol was used; however, the top chamber of the Transwell was filled with […] of BD Matrigel Basement Membrane Matrix (1 mg/mL). […] The number of invaded cells was determined by fixation staining and elution of crystal violet with 1% (w/v) SDS, as before.

Panc-1 cells = assay: MTT cell viability assay in Panc-1; format: cell-based; conditions: Homo sapiens, 50 μM CBD, 72 h, FIG. 6A, read-out: growth inhibition
Protocol: PANC-1 is a human pancreatic carcinoma, epithelial-like cell line; PANC-1 cells are used as an in vitro model of non-endocrine pancreatic cancer for tumorigenicity studies.
Cell viability was analyzed by the MTT [3-(4,5-dimethylthiazol-2-yl)-2,5-diphenyl tetrazolium bromide] assay. Pancreatic cancer cells were seeded onto each well of a 96-well plate. After 72 h of treatment with CBD, MTT solution 5 mg/ml in PBS was added to each well. The plates were then incubated at 37° C. for an additional 4 h to allow MTT to form formazan crystals by reacting with metabolically active cells. The formazan crystals were solubilized in a 1N isopropanol/HCl 10% solution at 37° C., on a shaking table for 20 min. The absorbance values of the solution in each well were measured at 570 nm using a microplate reader. Cell viability was determined by the formula: cell viability (%)=(absorbance of the treated wells−absorbance of the blank control wells)/(absorbance of the negative control wells−absorbance of the blank control wells)×100%. All MTT experiments were performed in triplicate and repeated at least three times.
The growth inhibition induced by different concentrations (0.04-50 μM) of CBD on human Panc-1 at 72 h from the beginning of the treatment was evaluated with MTT assay.

Tsc2−/− MEFs = assay: Transwell cell migration assay in Tsc2−/− MEFs; format: cell-based, mouse; conditions: Tsc2+/+ as control cell; reduction not significant; FIG. 2 (A)
Protocol: (ii) Tsc2−/− p53−/− and Tsc2+/+p53−/− mouse embryonic fibroblast (MEF) cell lines (now referred to as Tsc2−/− and Tsc2+/+, respectively).
as §2
The stock concentration of CBD was made to 20 mM in dimethyl sulfoxide (DMSO). CBD was added to culture media to final concentrations of either 5 μM or 10 μM, as indicated). The final concentration of the DMSO in the cell culture medium was at a maximum level of 0.05% (v/v).
as §3, with “assays. Cells were grown in a 75-cm2 flask with standard medium (10% (v/v) FBS) until confluent.” for “assays.”

**Q.** For `C=C(C)[C@@H]1CCC(C)=C[C@H]1c1c(O)cc(CCCCC)cc1O` [CBD, Cannabidiol], which “cell migration compared with rapamycin” value (AML 621-101 cells [1]; 10 μM CBD) is on record?
**A.** Its value is “reduced cell migration to a significantly greater extent than rapamycin”.

**Q.** What about the cell migration (AML 621-101 cells [1]; CBD at both 5 μM and 10 μM) of the same molecule?
**A.** Its cell migration is “significantly block”.

**Q.** What about the IC50 (Miapaca; Homo sapiens, MIA PaCa-2, Miapaca, 50% effect level, read-out: Dose of drug alone) of the same molecule?
**A.** The IC50 was 3.6 µM.

**Q.** And the DRI50 (Miapaca; Miapaca, Rad/CBD combination, dose reduction index)?
**A.** Its DRI50 is “CBD 7.1”.

**Q.** What about the “potentiation factor (PF)” value (Miapaca; ratio of IC50 alone to IC50 of CBD and Rad001 in combination) of the same molecule?
**A.** Its value is 8.

**Q.** What about the cell invasion (AML 621-101 cells [2]) of the same molecule?
**A.** The cell invasion was “significantly block”.

**Q.** What about the inhibition at 50 µM (Panc-1 cells) of the same molecule?
**A.** The inhibition at 50 µM was 41%.

**Q.** What about the cell migration (Tsc2−/− MEFs) of the same molecule?
**A.** The cell migration was “reduce cell migration to control level”.
